Measurements taken from PubChem BioAssay AID1963958 (Molecular Pharmacology Branch, DTP, NCI, 2024).
pIC50: −log10 of the molar value.

System: MDA-MB-231 multicell spheroids, viability
Assay: Anticancer human tumor MDA-MB-231 cell line growth inhibition [PI3K];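 note: spheroids exposed to agents for seven days before reading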;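 for viability, T/C: percent of vehicle control luminescence with DMSO treated spheroids as 100%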
Details: for pIC50: curve of first compound; for viability, T/C: stronger effect = lower value
Outline: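 Agents were dosed from a top concentration near clinical Cmax (otherwise 10 microM) in half-log decrements, alone or combined with PI3K inhibitors. The spheroids contain tumor cells plus endothelial (HUVEC) and MSC stroma; viability is measured.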

[1] = second compound 0.0316 µM, first compound 0.0316 µM
[2] = second compound 0.0316 µM, first compound 0.1 µM
[3] = second compound 0.0316 µM, first compound 0.316 µM
[4] = second compound 0.0316 µM, first compound 1 µM
[5] = second compound 0.0316 µM, first compound 3.16 µM
[6] = second compound 0.0316 µM, first compound 10 µM
[7] = second compound 0.1 µM, first compound 0.0316 µM
[8] = second compound 0.1 µM, first compound 0.1 µM
[9] = second compound 0.1 µM, first compound 0.316 µM
[10] = second compound 0.1 µM, first compound 1 µM
[11] = second compound 0.1 µM, first compound 3.16 µM
[12] = second compound 0.1 µM, first compound 10 µM
[13] = second compound 0.316 µM, first compound 0.0316 µM
[14] = second compound 0.316 µM, first compound 0.1 µM
[15] = second compound 0.316 µM, first compound 0.316 µM
[16] = second compound 0.316 µM, first compound 1 µM
[17] = second compound 0.316 µM, first compound 3.16 µM
[18] = second compound 0.316 µM, first compound 10 µM
[19] = second compound 1 µM, first compound 0.0316 µM
[20] = second compound 1 µM, first compound 0.1 µM
[21] = second compound 1 µM, first compound 0.316 µM
[22] = second compound 1 µM, first compound 1 µM
[23] = second compound 1 µM, first compound 3.16 µM
[24] = second compound 1 µM, first compound 10 µM
[25] = second compound 3.16 µM, first compound 0.0316 µM
[26] = second compound 3.16 µM, first compound 0.1 µM
[27] = second compound 3.16 µM, first compound 0.316 µM
[28] = second compound 3.16 µM, first compound 1 µM
[29] = second compound 3.16 µM, first compound 3.16 µM
[30] = second compound 3.16 µM, first compound 10 µM
[31] = second compound 10 µM, first compound 0.0316 µM
[32] = second compound 10 µM, first compound 0.1 µM
[33] = second compound 10 µM, first compound 0.316 µM
[34] = second compound 10 µM, first compound 1 µM
[35] = second compound 10 µM, first compound 3.16 µM
[36] = second compound 10 µM, first compound 10 µM

Compound `C#Cc1c(F)ccc2cc(O)cc(-c3ncc4c(N5CC6CCC(C5)N6)nc(OCC56CCCN5CC(F)C6)nc4c3F)c12` (stereo unspecified) + CC(Nc1ncnc2nc[nH]c12)c1cc2cccc(Cl)c2c(=O)n1-c1ccccc1 has a pIC50 (second compound 0.0316 µM) of less than 5.00, a pIC50 (second compound 0.1 µM) of less than 5.00 and a pIC50 (second compound 0.316 µM) of less than 5.00. The pIC50 (second compound 1 µM) was 5.18, the pIC50 (second compound 3.16 µM) was 5.71 and the pIC50 (second compound 10 µM) was 7.41. For the same compound, the viability, T/C [1] was 109%, the viability, T/C [2] was 96.2% and the viability, T/C [3] was 103%. The viability, T/C [4] was 94.6%, the viability, T/C [5] was 89.9% and the viability, T/C [6] was 61.1%. It also gave a viability, T/C [7] of 101%, a viability, T/C [8] of 99.1% and a viability, T/C [9] of 90.6%. For the same compound, the viability, T/C [10] was 88.3%, the viability, T/C [11] was 79.5% and the viability, T/C [12] was 57.7%. It also gave a viability, T/C [13] of 99.2%, a viability, T/C [14] of 89% and a viability, T/C [15] of 87.6%. It also gave a viability, T/C [16] of 86.4%, a viability, T/C [17] of 77.5% and a viability, T/C [18] of 53.2%. It also gave a viability, T/C [19] of 75.5%, a viability, T/C [20] of 83.2% and a viability, T/C [21] of 90.2%. The viability, T/C [22] was 72.8%, the viability, T/C [23] was 62.4% and the viability, T/C [24] was 43.5%. For the same compound, the viability, T/C [25] was 65.5%, the viability, T/C [26] was 62.8% and the viability, T/C [27] was 56.6%. The viability, T/C [28] was 56.5%, the viability, T/C [29] was 46.7% and the viability, T/C [30] was 33.1%. It also gave a viability, T/C [31] of 51.4%, a viability, T/C [32] of 46.8% and a viability, T/C [33] of 44.4%. For the same compound, the viability, T/C [34] was 39.8%, the viability, T/C [35] was 35.4% and the viability, T/C [36] was 26.4%.

`CC1(C)CCC(Nc2ncc(C(F)(F)F)c(-c3c[nH]c4c(P(C)(C)=O)c(C#N)ccc34)n2)CN1` (stereo unspecified) + CC(Nc1ncnc2nc[nH]c12)c1cc2cccc(Cl)c2c(=O)n1-c1ccccc1 was tested, and the pIC50 (second compound 0.0316 µM) was 7.50, the pIC50 (second compound 0.1 µM) was 7.50 and the pIC50 (second compound 0.316 µM) was 7.50. It also gave a pIC50 (second compound 1 µM) greater than 7.50, a pIC50 (second compound 3.16 µM) greater than 7.50 and a pIC50 (second compound 10 µM) greater than 7.50. The viability, T/C [1] was 46.4%, the viability, T/C [2] was 37.8% and the viability, T/C [3] was 41.4%. The viability, T/C [4] was 53.5%, the viability, T/C [5] was 60.6% and the viability, T/C [6] was 5.54%. It also gave a viability, T/C [7] of 46.3%, a viability, T/C [8] of 38.5% and a viability, T/C [9] of 40.7%. The viability, T/C [10] was 51.6%, the viability, T/C [11] was 55.6% and the viability, T/C [12] was 5.27%. It also gave a viability, T/C [13] of 45.7%, a viability, T/C [14] of 39.4% and a viability, T/C [15] of 42.5%. For the same compound, the viability, T/C [16] was 48.6%, the viability, T/C [17] was 54.2% and the viability, T/C [18] was 6.2%. For the same compound, the viability, T/C [19] was 43.9%, the viability, T/C [20] was 34.7% and the viability, T/C [21] was 38.6%. It also gave a viability, T/C [22] of 49.4%, a viability, T/C [23] of 49.6% and a viability, T/C [24] of 4.82%. For the same compound, the viability, T/C [25] was 39.8%, the viability, T/C [26] was 37% and the viability, T/C [27] was 42.2%. For the same compound, the viability, T/C [28] was 44.9%, the viability, T/C [29] was 36% and the viability, T/C [30] was 4.74%. It also gave a viability, T/C [31] of 38.4%, a viability, T/C [32] of 34.6% and a viability, T/C [33] of 36%. The viability, T/C [34] was 33.2%, the viability, T/C [35] was 35.5% and the viability, T/C [36] was 3.53%.

`Cn1cnc2c(F)c(Nc3ccc(Br)cc3Cl)c(C(=O)NOCCO)cc21` + COc1c(OCCCN2CCOCC2)ccc2c3n(c(=NC(=O)c4cnc(N)nc4)nc12)CCN3 showed a pIC50 (second compound 0.00316 µM) of 6.74, a pIC50 (second compound 0.01 µM) of 7.39 and a pIC50 (second compound 0.0316 µM) greater than 8.02. For the same compound, the pIC50 (second compound 0.1 µM) was greater than 8.02, the pIC50 (second compound 0.316 µM) was greater than 8.02 and the pIC50 (second compound 1 µM) was greater than 8.02. For the same compound, the viability, T/C (second compound 0.00316 µM, first compound 0.00949 µM) was 60%, the viability, T/C (second compound 0.00316 µM, first compound 0.03 µM) was 56.6% and the viability, T/C (second compound 0.00316 µM, first compound 0.0949 µM) was 52.2%. For the same compound, the viability, T/C (second compound 0.00316 µM, first compound 0.3 µM) was 47.5%, the viability, T/C (second compound 0.00316 µM, first compound 0.949 µM) was 41.4% and the viability, T/C (second compound 0.00316 µM, first compound 3 µM) was 29.7%. For the same compound, the viability, T/C (second compound 0.01 µM, first compound 0.00949 µM) was 62.1%, the viability, T/C (second compound 0.01 µM, first compound 0.03 µM) was 46.6% and the viability, T/C (second compound 0.01 µM, first compound 0.0949 µM) was 42.2%. It also gave a viability, T/C (second compound 0.01 µM, first compound 0.3 µM) of 40.4%, a viability, T/C (second compound 0.01 µM, first compound 0.949 µM) of 41.7% and a viability, T/C (second compound 0.01 µM, first compound 3 µM) of 23.6%. It also gave a viability, T/C (second compound 0.0316 µM, first compound 0.00949 µM) of 45%, a viability, T/C (second compound 0.0316 µM, first compound 0.03 µM) of 43.4% and a viability, T/C (second compound 0.0316 µM, first compound 0.0949 µM) of 38.9%. The viability, T/C (second compound 0.0316 µM, first compound 0.3 µM) was 33.1%, the viability, T/C (second compound 0.0316 µM, first compound 0.949 µM) was 28.8% and the viability, T/C (second compound 0.0316 µM, first compound 3 µM) was 12.9%. For the same compound, the viability, T/C (second compound 0.1 µM, first compound 0.00949 µM) was 33.7%, the viability, T/C (second compound 0.1 µM, first compound 0.03 µM) was 30.3% and the viability, T/C (second compound 0.1 µM, first compound 0.0949 µM) was 27.3%. It also gave a viability, T/C (second compound 0.1 µM, first compound 0.3 µM) of 27.1%, a viability, T/C (second compound 0.1 µM, first compound 0.949 µM) of 21% and a viability, T/C (second compound 0.1 µM, first compound 3 µM) of 7.54%. It also gave a viability, T/C (second compound 0.316 µM, first compound 0.00949 µM) of 24.3%, a viability, T/C (second compound 0.316 µM, first compound 0.03 µM) of 18.7% and a viability, T/C (second compound 0.316 µM, first compound 0.0949 µM) of 15.8%. It also gave a viability, T/C (second compound 0.316 µM, first compound 0.3 µM) of 14.4%, a viability, T/C (second compound 0.316 µM, first compound 0.949 µM) of 12.2% and a viability, T/C (second compound 0.316 µM, first compound 3 µM) of 5.36%. For the same compound, the viability, T/C (second compound 1 µM, first compound 0.00949 µM) was 17.7%, the viability, T/C (second compound 1 µM, first compound 0.03 µM) was 14.2% and the viability, T/C (second compound 1 µM, first compound 0.0949 µM) was 12.5%. The viability, T/C (second compound 1 µM, first compound 0.3 µM) was 9.99%, the viability, T/C (second compound 1 µM, first compound 0.949 µM) was 8.63% and the viability, T/C (second compound 1 µM, first compound 3 µM) was 4.84%.
